Assay results: paper PMC11530802, “Evolution, structure, and drug-metabolizing activity of mammalian prenylcysteine oxidases” (The Journal of Biological Chemistry, 2024)

Target: T1, PCYOX1 (mammalian ancestor)
T1 construct: mammalian ancestor's PCYOX1 (26-502), without signal peptide, six histidine N-terminal tag
Assay: microscale thermophoresis; GC-MS detection of farnesal
Format: binding, synthetic construct

Kd: 12 ± 0.2 µM
SMILES: CC(C)=CCC/C(C)=C/CC/C(C)=C/CSc1ccccc1C(=O)O [salirasib]
